Measured values: ChEMBL document CHEMBL1201862, “PubChem BioAssay data set” (2004)
Calls of active or inactive are those of the source.

How the values were obtained:
BJ [1] = assay: cytotoxicity toward BJ-TERT-LT-ST fibroblasts, dose response, cell-based, RAS-independent, luminescence (AID 1935); format: functional; conditions: Homo sapiens;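 note: BJ fibroblasts immortalized with TERT plus LT and ST oncogenes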
BJ [2] = assay: cells; format: functional, cell-based; conditions: Homo sapiens
[3] = target: T1, Short transient receptor potential channel 4 (Mus musculus, UniProt Q9QUQ5); assay: mouse TRPC4 channel inhibitors, dose response, cell-based, HEK293 TRPC4/mu-opioid, Fluo-4 calcium (AID 434942); format: functional;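 note: potency of inhibitors blocking the TRPC4 calcium response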
T1 sequence (Q9QUQ5 whole entry): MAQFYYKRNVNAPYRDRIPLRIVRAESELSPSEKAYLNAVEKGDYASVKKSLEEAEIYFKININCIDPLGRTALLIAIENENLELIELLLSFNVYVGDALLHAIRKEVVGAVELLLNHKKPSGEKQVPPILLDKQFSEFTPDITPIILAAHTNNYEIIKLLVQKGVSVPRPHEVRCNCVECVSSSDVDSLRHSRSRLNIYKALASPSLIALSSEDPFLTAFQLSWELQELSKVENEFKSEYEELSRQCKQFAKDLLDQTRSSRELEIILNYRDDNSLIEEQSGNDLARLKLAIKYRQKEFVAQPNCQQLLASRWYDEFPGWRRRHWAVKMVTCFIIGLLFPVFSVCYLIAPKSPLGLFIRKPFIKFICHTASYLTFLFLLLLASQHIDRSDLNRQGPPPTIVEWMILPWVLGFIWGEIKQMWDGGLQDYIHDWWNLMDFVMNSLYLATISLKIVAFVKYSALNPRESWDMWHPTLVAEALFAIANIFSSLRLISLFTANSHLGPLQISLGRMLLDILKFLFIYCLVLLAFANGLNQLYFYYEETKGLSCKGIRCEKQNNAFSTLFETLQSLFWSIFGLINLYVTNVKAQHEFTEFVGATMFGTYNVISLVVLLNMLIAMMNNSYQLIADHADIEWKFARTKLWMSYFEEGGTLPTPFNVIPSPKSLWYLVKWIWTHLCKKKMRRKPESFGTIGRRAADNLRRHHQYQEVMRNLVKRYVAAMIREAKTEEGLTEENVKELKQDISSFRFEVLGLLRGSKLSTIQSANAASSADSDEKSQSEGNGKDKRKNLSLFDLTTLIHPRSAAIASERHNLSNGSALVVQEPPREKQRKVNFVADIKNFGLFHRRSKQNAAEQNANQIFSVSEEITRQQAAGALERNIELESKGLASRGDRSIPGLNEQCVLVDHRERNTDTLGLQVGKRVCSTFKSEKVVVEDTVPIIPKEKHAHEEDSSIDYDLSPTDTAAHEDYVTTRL

[4] = cytotoxicity toward DRD oncogenic fibroblasts, dose response, cell-based, non-viral oncogenic, luminescence (AID 1934); format: functional; conditions: Homo sapiens
Transthyretin = Transthyretin (Homo sapiens, UniProt P02766); assay: Luminescence-based cell-based high throughput dose response assay to identify activators of Transthyretin (TTR) transcription.; format: functional
BJ [5] = assay: cytotoxicity toward Ras-transformed BJeLR fibroblasts, dose response, cell-based, alamar blue fluorescence, cherrypicked samples (AID 2631); format: functional; conditions: Homo sapiens;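 note: confirmatory dose-response assay in RAS-dependent BJ fibroblasts engineered with TERT, LT and ST, with cytotoxicity read by fluorescence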
BJ [6] = assay: cytotoxicity toward BJ-TERT fibroblasts, dose response, cell-based, RAS-independent, luminescence (AID 1933); format: functional; conditions: Homo sapiens
[7] = NIH-3T3 fibroblast cytotoxicity, dose response, cytotoxicity control, cell-based, fluorescence, Alamar Blue, secondary assay (AID 2327); format: functional;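 note: NIH-3T3 mouse fibroblasts cultured with fluconazole at 8 µg/mL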
[8] = target: Bifunctional protein GlmU (Mycobacterium tuberculosis, UniProt P9WMN3); assay: Inhibitors of Mycobacterial Glucosamine-1-phosphate acetyl transferase (GlmU). Secondary screen.; design: species or system Mycobacterium tuberculosis H37Rv
Sequence of Bifunctional protein GlmU (P9WMN3 whole entry): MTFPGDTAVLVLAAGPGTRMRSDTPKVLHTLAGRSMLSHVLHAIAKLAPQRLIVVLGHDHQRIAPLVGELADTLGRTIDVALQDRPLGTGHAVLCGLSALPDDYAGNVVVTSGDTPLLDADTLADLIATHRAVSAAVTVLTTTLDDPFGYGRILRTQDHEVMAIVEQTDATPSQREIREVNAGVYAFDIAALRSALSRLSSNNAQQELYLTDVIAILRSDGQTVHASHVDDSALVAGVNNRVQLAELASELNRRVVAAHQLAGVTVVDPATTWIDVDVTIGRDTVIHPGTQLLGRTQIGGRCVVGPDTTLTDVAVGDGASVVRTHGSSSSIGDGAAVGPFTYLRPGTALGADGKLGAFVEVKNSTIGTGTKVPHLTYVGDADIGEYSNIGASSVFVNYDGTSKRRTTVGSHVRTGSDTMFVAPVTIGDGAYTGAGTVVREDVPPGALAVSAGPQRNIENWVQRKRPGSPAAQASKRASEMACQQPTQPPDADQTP

Genome polyprotein = Genome polyprotein (dengue virus type 2, UniProt P29990); assay: Dengue-2 NS5 methyltransferase inhibitors, primary screen, biochemical, confirmation dose response (AID 588689); format: functional
Sequence of Genome polyprotein (P29990 2492-3391 limits assumed): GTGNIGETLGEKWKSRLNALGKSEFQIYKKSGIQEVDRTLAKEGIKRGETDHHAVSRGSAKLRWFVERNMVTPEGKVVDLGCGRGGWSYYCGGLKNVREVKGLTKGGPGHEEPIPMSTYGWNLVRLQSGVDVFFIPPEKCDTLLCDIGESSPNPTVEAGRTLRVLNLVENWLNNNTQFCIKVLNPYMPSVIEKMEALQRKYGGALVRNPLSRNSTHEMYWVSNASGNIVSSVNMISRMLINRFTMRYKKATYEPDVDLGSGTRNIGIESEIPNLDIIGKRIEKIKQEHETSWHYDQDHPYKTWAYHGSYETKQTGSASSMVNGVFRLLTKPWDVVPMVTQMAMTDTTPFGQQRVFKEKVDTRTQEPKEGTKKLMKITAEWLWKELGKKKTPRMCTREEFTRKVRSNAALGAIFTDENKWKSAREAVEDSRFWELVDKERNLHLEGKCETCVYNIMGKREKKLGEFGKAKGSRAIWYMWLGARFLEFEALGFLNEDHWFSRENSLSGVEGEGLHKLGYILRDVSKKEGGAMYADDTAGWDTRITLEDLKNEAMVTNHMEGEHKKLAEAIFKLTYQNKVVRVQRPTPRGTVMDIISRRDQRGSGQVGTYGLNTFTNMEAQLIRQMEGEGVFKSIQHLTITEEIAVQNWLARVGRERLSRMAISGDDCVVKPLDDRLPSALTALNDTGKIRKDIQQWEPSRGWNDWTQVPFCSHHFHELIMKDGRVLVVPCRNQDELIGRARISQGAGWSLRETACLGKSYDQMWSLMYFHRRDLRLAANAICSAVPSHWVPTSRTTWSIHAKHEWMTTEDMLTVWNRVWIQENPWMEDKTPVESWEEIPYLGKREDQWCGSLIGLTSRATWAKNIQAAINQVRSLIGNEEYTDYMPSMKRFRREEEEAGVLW

Large T antigen = Large T antigen (Simian virus 40, UniProt P03070); format: functional, Betapolyomavirus macacae;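 note: Confirmatory-stage PubChem screen for compounds that inhibit SV40 T antigen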
Sequence of Large T antigen (P03070 whole entry): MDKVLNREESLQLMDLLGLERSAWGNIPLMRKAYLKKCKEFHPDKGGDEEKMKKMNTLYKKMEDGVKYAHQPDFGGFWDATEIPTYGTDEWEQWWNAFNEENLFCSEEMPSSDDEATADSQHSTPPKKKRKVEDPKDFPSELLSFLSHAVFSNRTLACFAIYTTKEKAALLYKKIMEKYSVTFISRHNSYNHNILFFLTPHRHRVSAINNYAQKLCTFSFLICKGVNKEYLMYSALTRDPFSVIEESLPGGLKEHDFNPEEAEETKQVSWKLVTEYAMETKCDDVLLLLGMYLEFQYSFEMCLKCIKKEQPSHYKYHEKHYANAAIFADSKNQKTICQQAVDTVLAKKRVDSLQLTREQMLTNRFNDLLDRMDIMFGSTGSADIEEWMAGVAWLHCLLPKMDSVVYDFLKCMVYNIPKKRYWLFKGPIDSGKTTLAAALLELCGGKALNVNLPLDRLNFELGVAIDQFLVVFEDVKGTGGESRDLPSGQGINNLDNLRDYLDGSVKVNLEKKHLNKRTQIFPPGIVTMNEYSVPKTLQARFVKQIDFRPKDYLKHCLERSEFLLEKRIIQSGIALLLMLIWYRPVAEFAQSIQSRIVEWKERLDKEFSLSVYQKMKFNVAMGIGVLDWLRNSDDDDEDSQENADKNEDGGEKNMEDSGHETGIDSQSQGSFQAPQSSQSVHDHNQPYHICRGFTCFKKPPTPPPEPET

[9] = target: T2, Histone-lysine N-methyltransferase NSD2 (Homo sapiens, UniProt O96028); format: biochemical
T2 sequence (O96028 whole entry): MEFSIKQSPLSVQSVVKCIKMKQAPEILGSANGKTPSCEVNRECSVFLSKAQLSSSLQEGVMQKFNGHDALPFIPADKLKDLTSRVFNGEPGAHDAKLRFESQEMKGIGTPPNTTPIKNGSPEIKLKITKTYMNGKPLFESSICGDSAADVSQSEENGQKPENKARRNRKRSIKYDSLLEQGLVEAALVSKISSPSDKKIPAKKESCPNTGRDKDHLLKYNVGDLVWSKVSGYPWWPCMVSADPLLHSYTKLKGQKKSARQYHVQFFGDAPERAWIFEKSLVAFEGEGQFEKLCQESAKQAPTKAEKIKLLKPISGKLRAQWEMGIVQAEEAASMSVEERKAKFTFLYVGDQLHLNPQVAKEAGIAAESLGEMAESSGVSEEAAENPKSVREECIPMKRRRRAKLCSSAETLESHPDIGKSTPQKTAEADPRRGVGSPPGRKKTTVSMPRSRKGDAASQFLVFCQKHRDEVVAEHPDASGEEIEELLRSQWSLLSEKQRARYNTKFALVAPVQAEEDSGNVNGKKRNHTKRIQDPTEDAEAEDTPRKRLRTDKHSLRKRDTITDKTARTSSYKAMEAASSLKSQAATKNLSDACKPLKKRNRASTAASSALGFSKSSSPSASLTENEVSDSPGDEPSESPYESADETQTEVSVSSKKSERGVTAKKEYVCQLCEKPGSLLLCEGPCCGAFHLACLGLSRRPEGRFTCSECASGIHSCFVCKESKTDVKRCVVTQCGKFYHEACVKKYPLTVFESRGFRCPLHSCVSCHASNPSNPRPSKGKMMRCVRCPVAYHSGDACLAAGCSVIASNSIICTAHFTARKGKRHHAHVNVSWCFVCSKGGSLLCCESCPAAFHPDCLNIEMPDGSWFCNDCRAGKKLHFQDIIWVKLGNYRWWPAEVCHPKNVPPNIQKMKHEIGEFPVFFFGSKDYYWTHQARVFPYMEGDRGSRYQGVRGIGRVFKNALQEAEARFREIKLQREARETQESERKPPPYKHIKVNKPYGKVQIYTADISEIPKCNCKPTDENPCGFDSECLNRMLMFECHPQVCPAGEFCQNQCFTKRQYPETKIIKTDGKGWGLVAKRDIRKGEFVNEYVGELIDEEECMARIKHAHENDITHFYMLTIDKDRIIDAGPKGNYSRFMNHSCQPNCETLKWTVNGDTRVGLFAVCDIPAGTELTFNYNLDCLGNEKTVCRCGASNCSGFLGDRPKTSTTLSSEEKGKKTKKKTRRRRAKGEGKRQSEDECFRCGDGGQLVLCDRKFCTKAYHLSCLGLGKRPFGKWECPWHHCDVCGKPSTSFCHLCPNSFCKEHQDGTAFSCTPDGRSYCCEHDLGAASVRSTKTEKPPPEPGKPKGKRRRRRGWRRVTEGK

[10] = target: Long-chain-fatty-acid--AMP ligase FadD28 (Mycobacterium tuberculosis, UniProt P9WQ59); assay: Fluorescence polarization aasay to screen for inhibitors that compete for the binding of FadD28 to a bisubstrate Measured in Biochemical System Using Plate Reader - 2147-01_Inhibitor_Dose_CherryPick_Activity.; format: functional, Mycobacterium tuberculosis H37Rv
Sequence of Long-chain-fatty-acid--AMP ligase FadD28 (P9WQ59 whole entry, the tested form may be a part): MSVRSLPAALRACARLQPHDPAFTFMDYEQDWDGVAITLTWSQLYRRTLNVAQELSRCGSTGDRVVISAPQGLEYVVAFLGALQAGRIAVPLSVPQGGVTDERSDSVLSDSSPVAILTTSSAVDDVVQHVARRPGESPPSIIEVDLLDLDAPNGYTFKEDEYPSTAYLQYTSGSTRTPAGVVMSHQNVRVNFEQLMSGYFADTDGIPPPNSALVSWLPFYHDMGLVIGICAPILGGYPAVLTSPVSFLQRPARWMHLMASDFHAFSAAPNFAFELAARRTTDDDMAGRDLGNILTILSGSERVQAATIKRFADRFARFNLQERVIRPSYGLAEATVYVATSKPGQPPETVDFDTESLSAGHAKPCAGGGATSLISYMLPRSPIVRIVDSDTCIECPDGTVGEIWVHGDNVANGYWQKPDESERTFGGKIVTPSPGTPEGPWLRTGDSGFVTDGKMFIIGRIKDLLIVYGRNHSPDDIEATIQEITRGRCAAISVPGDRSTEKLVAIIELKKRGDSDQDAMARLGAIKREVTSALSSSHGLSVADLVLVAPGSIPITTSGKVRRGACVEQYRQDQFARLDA

[11] = target: T3, Carboxy-terminal domain RNA polymerase II polypeptide A small phosphatase 1 (Homo sapiens, UniProt Q9GZU7); assay: inhibitors of CTDSP1, concentration-response testing, biochemical assay, absorbance-based, actives from ultra-high-throughput screening (AID 540297); format: functional
T3 sequence (Q9GZU7 whole entry): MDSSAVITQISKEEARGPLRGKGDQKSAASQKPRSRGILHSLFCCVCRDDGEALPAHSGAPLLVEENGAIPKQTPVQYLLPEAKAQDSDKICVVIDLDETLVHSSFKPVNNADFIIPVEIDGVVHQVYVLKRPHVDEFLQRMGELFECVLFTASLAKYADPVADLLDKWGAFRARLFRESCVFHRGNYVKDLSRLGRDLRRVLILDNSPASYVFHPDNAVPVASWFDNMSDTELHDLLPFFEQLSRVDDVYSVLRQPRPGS

[12] = C. albicans growth with fluconazole, confirmation, fluorescence, retest (AID 2467); format: functional, cell-based
[13] = target: T4, DNA repair protein RAD52 homolog (Homo sapiens, UniProt P43351); format: functional, biochemical
T4 sequence (P43351 whole entry): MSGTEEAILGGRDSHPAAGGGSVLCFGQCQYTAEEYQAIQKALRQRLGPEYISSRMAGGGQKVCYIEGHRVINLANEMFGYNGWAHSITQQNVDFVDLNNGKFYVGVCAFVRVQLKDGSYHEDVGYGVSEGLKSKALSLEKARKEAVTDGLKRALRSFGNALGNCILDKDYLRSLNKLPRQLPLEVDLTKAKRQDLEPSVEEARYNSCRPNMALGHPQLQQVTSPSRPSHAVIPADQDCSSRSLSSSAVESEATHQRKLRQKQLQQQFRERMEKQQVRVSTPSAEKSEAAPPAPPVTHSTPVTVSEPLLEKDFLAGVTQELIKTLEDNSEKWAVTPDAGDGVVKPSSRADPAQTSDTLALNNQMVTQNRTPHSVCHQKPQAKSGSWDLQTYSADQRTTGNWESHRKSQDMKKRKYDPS

INS1 = assay: beta cell apoptosis inhibitors, cytokine rescue, dose response, luminescence, retest (AID 449756); format: functional, cell-based; conditions: Rattus norvegicus;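 note: cell death triggered by IL-1 beta plus TNF-alpha plus IFN-gamma mixture; protective hits raise ATP signal compared with cytokine alone wells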
[14] = target: T5, DNA repair and recombination protein RAD54-like (Homo sapiens, UniProt Q92698); assay: inhibitors of human RAD54 branch migration, confirmation, biochemical, fluorescence, cherry-picked samples, dose series (AID 651657); format: functional
T5 sequence (Q92698 whole entry): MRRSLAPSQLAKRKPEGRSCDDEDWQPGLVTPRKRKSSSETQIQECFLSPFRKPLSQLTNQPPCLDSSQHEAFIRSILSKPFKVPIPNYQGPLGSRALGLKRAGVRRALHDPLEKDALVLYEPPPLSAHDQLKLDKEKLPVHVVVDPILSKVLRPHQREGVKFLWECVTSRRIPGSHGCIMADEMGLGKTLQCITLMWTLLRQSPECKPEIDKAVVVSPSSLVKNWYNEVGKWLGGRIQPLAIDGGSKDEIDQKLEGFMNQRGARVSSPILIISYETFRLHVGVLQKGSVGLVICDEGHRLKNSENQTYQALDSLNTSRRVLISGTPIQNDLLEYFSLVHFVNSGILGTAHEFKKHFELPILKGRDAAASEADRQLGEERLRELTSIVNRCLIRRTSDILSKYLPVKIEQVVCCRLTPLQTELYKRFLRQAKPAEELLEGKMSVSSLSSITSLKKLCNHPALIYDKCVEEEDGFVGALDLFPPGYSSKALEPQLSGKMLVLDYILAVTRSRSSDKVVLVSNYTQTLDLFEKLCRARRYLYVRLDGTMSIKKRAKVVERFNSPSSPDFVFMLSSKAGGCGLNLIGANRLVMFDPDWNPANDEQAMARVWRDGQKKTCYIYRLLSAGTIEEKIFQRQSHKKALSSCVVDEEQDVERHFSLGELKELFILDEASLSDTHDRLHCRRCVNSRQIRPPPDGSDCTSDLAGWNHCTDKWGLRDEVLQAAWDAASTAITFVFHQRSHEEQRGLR

[15] = target: T6, Alkaline phosphatase, tissue-nonspecific isozyme (Homo sapiens, UniProt P05186); assay: human TNAP enzyme inhibitors, SAR follow-up, biochemical, luminescent, dose response (AID 1056)
T6 sequence (P05186 whole entry): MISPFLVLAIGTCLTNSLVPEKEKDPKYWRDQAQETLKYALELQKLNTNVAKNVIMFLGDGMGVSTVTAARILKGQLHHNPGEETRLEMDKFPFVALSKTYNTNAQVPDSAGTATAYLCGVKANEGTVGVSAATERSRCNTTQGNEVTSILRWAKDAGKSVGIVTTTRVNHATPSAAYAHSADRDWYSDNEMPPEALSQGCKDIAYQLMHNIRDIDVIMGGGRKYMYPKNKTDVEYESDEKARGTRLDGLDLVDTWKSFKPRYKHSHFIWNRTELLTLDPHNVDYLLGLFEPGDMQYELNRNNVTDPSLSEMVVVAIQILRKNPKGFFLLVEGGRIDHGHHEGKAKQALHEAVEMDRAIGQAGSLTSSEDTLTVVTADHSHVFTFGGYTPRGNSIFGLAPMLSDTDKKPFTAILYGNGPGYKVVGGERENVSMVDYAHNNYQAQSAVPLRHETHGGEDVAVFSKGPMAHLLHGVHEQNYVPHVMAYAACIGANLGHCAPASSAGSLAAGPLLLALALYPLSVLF

[16] = target: Glyceraldehyde-3-phosphate dehydrogenase (Homo sapiens, UniProt P04406)
Sequence of Glyceraldehyde-3-phosphate dehydrogenase (P04406 whole entry): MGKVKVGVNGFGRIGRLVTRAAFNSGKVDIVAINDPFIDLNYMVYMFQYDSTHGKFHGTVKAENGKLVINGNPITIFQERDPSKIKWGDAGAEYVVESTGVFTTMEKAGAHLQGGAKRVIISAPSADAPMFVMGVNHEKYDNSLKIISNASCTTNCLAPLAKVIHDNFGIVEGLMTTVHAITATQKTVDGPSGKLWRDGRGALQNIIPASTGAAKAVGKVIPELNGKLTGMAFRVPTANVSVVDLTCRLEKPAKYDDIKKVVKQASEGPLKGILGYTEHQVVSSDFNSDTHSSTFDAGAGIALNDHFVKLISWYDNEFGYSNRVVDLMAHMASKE

[17] = target: Mitogen-activated protein kinase 10 (Homo sapiens, UniProt P53779); assay: Dose response biochemical screening assay for inhibitors of c-Jun N-Terminal Kinase 3 (JNK3). [Related pubchem assays: 746 ]
Sequence of Mitogen-activated protein kinase 10 (P53779 whole entry): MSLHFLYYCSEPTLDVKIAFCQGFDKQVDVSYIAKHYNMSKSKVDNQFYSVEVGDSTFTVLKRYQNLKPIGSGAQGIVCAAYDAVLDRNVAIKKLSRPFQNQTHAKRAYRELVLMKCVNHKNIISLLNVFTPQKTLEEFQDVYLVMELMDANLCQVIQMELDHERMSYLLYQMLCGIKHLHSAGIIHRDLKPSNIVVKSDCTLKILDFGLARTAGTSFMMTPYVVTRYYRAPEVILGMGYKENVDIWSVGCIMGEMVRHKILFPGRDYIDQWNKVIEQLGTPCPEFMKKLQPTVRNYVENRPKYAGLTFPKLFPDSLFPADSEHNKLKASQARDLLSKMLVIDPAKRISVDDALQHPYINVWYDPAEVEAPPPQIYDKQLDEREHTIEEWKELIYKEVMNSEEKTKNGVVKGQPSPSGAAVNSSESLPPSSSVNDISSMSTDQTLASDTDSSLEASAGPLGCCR

[18] = cytotoxicity toward NIH3T3 fibroblasts, dose response, counter-screen, cell-based, ATP luminescence, mouse fibroblasts (AID 2010); format: functional;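 note: cells exposed to compound for about 90 hours before reading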
[19] = THP-1 cell cytotoxicity, dose response, cytotoxicity control for Vif-APOBEC3G degradation inhibitor project, THP-1 cells (AID 1117359); format: functional; conditions: Human immunodeficiency virus 1, THP-1
[20] = inhibitors of intracellular T. cruzi replication, confirmation, NIH3T3 host cells, beta-gal luminescence (AID 2044); format: functional, cell-based;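 note: intracellular parasites grown in NIH/3T3 mouse fibroblasts as host cells; luminescent beta-galactosidase reporter signal from transgenic T. cruzi replicating inside host cells; inhibitors lower the luminescence signal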

## CN(C)CC(CCC(CN(C)C)C(O)(c1ccccc1)c1ccccc1)C(O)(c1ccccc1)c1ccccc1 (stereo not given)
BJ [1]
  EC50: 5.82 µM (inconclusive)
BJ [2]
  EC50: 11.6 µM (active)
[3]
  EC50: 1.68 µM (active)
[4]
  EC50: 5.81 µM (active)
Transthyretin
  EC50: > 167 µM (inactive)
BJ [5]
  EC50: 2.13 µM (active)
BJ [6]
  EC50: 4.97 µM (inconclusive)

## Cc1cccc(N2NC(=O)/C(=C/c3ccc(-c4ccc(Cl)c(C(=O)O)c4)o3)C2=O)c1
[7]
  EC50: > 150 µM (inactive)
[8]
  IC50: 122 µM (active)
Genome polyprotein
  IC50: 22.5 µM (active)
Large T antigen
  IC50: 22.3 µM (active)
[9]
  AC50: > 20 µM (inactive)
[10]
  AC50: > 100 µM (inactive)
[11]
  IC50: 3.84 µM (active)
[12]
  EC50: > 38 µM (not active)

## COc1ccc(CCNc2c3ccccc3nc3ccccc23)cc1OC
[13]
  AC50: 6.38 µM (active)
Transthyretin
  EC50: > 167 µM (inactive)
INS1
  AC50: 4.5 µM (active)
[14]
  AC50: 7.87 µM (active)

## c1ccc(-c2[nH]nc3ccccc23)cc1
[15]
  IC50: 3.53 µM (active)
[16]
  IC50: > 10 µM (inconclusive)
[17]
  IC50: 2.34 µM (active)

## O=[N+]([O-])c1ccc(/C=N/Nc2nc(N3CCCC3)nc(N3CCCC3)n2)o1
[18]
  EC50: > 60 µM (not active)
[19]
  CC50: > 40 µM (active)
[20]
  EC50: 0.563 µM (active)
